Data taken from US10660877B2 (BRISTOL-MYERS SQUIBB COMPANY, priority 2016, dated 2020).
Read-outs that look alike come from different tables or passages of the source.

What was measured:
[1] = molecular target: human TLR7 (Homo sapiens (Human), UniProt Q9NYK1); experiment: TLR7 inhibition reporter assay (HEK-Blue cells, SEAP reporter, gardiquimod stimulation); format: cell-based
[2] = molecular target: human TLR8 (Homo sapiens (Human), UniProt Q9NR97); experiment: TLR8 inhibition reporter assay (HEK-Blue cells, SEAP reporter, R848 stimulation);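 also: compounds tested from 0.05 nM to 50 µM, 22 h at 37 °C, SEAP measured with HEK-Blue Detection, inhibition relative to agonist plus DMSO versus a known inhibitor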
Chain of human TLR8 (Q9NR97 27-1041): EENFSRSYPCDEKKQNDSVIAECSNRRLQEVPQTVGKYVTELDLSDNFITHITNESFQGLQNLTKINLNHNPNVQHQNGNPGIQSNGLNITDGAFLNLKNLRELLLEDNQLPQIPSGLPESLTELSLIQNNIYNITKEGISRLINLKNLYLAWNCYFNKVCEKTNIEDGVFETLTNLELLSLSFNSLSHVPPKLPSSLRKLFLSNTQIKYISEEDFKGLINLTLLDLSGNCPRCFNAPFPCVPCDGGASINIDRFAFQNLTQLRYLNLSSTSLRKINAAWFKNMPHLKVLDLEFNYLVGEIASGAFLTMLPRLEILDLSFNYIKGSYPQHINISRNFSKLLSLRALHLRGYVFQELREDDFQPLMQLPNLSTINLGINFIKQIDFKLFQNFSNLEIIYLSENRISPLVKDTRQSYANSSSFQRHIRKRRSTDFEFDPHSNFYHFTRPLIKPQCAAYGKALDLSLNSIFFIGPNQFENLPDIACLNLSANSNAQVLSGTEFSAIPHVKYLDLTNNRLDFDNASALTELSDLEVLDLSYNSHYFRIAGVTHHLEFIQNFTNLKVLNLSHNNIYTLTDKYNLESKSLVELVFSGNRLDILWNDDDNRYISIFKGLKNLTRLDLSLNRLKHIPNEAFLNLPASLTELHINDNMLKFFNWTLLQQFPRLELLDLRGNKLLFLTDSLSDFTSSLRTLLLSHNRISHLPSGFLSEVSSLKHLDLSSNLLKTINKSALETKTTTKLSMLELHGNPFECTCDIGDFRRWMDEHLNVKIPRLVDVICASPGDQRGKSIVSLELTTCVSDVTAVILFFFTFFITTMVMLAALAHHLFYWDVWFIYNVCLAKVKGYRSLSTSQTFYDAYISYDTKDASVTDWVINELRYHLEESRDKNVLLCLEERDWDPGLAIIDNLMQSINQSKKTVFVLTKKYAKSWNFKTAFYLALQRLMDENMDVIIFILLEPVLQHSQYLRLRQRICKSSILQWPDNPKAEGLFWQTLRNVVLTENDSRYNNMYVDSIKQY

[3] = molecular target: human TLR9 (Homo sapiens (Human), UniProt Q9NR96); experiment: TLR9 inhibition reporter assay (HEK-Blue cells, SEAP reporter, ODN2006 stimulation);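 also: compounds tested over 0.05 nM to 50 µM, 22 h incubation, inhibition taken as SEAP signal drop from agonist plus DMSO wells toward a known inhibitor control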
Chain of human TLR9 (Q9NR96 26-1032): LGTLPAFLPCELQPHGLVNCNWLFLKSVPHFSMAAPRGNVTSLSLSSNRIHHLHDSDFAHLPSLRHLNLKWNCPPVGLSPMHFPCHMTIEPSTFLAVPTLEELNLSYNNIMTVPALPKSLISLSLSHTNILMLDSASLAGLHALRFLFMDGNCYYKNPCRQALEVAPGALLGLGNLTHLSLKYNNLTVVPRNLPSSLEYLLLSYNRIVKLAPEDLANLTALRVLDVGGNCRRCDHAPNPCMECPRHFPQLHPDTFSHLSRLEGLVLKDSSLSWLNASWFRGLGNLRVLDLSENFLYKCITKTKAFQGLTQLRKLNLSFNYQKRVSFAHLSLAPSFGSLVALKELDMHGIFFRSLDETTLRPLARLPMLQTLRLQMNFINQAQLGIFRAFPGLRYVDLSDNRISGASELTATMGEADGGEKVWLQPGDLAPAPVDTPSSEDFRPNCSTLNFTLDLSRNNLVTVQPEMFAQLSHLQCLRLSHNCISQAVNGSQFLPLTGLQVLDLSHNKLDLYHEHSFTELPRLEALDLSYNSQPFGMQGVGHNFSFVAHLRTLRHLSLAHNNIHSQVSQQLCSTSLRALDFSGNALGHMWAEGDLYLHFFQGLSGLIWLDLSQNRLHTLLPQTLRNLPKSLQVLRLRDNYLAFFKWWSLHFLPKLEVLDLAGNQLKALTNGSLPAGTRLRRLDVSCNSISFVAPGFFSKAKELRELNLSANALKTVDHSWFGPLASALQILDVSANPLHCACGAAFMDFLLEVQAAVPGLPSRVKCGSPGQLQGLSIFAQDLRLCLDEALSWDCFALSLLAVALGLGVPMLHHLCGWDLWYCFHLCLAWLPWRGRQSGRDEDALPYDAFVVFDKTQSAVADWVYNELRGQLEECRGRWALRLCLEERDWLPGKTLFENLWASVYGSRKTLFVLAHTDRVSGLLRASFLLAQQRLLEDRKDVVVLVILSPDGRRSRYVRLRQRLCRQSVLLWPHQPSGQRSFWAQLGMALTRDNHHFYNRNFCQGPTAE
Experimental: TLR7/8/9 Inhibition Reporter Assays
Briefly, cells are seeded into Greiner 384 well plates (15000 cells per well for TLR7, 20,000 for TLR8 and 25,000 for TLR9) and then treated with test compounds in DMSO to yield a final dose response concentration range of 0.05 nM-50 μM. […] After a 22 hour incubation at 37° C., 5% CO2, SEAP levels are determined with the addition of HEK-Blue™ Detection reagent (Invivogen), a cell culture medium that allows for detection of SEAP, according to manufacturer's specifications. The percent inhibition is determined as the % reduction in the HEK-Blue signal present in wells treated with agonist plus DMSO alone compared to wells treated with a known inhibitor.

[4] = HEK-Blue cells overexpressing human TLR7, gardiquimod 7.5 μM
[5] = read-out: TLR8 IC50, HEK-Blue cells overexpressing human TLR8, R848 15.9 μM
[6] = read-out: TLR9 IC50, HEK-Blue cells overexpressing human TLR9, ODN2006 5 nM
[7] = HEK-Blue cells, gardiquimod 7.5 μM
[8] = read-out: TLR8 IC50, HEK-Blue cells, R848 15.9 μM
[9] = read-out: TLR9 IC50, HEK-Blue cells, ODN2006 5 nM

Chain of human TLR7 (Q9NYK1 27-1049): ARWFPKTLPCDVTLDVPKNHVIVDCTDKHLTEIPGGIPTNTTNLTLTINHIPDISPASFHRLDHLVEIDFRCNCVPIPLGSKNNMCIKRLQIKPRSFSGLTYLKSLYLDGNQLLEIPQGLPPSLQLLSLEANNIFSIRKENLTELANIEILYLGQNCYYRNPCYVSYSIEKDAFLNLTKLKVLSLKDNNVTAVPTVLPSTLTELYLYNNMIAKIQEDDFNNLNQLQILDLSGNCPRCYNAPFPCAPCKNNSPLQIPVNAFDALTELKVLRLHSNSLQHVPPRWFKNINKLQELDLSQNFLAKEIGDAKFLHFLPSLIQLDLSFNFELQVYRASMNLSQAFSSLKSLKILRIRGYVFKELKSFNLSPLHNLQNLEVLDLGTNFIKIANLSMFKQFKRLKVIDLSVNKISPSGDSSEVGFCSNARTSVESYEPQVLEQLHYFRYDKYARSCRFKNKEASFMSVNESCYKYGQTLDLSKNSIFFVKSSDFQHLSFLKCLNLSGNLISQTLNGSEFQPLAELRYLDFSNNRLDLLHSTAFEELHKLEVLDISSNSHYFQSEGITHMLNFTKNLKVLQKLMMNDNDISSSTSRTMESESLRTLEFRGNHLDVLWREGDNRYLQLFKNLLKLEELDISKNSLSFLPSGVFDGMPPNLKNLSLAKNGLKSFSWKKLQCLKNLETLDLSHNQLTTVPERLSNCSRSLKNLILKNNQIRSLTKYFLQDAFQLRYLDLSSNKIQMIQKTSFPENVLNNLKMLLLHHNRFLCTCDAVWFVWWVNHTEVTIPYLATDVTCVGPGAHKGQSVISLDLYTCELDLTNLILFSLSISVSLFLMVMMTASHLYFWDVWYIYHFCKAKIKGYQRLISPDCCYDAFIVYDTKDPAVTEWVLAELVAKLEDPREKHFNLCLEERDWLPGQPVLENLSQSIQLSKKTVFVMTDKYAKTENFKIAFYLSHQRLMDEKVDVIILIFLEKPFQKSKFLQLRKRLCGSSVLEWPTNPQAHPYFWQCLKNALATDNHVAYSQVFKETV

Compound | IC50 [1, 4] | IC50 [2, 5] | IC50 [3, 6] | IC50 [1, 7] | IC50 [2, 8] | IC50 [3, 9] | IC50 ([2]; TLR8 IC50, HEK-Blue cells overexpressing human TLR8, R848 15.9 μM) | IC50 ([3]; TLR9 IC50, HEK-Blue cells overexpressing human TLR9, ODN2006 5 nM)
CCc1c(-c2ccnc(Cl)c2)[nH]c2ccc(C3CCN(C4CCN(CC(C)C)CC4)CC3)cc12 [Example 758, 2-(2-chloropyridin-4-yl)-3-ethyl-5-(1′-isobutyl-[1,4′-bipiperidin]-4-yl)-1H-indole] | 967 nM | 136 nM | 751 nM |  |  |  |  | 
Cc1cc(-c2[nH]c3ccc(C4CCN(C(=O)CN(C)CCC#N)CC4)cc3c2C(C)C)c(F)cn1 [Example 679, 3-((2-(4-(2-(5-fluoro-2-methylpyridin-4-yl)-3-isopropyl-1H-indol-5-yl)piperidin-1-yl)-2-oxoethyl)(methyl)amino)propanenitrile] | 12.7 nM | 19.8 nM | 4380 nM |  |  |  |  | 
Cc1cc(-c2[nH]c3ccc(C4CCN(C(=O)C(C)(C)C)CC4)cc3c2C(C)C)ccn1 [Example 601, 1-(4-(3-isopropyl-2-(2-methylpyridin-4-yl)-1H-indol-5-yl)piperidin-1-yl)-2,2-dimethylpropan-1-one] | 99.2 nM | 385 nM | 34100 nM |  |  |  |  | 
Cc1cc(-c2[nH]c3ccc(C4CCN(C(=O)C(=O)NCCc5ccncc5)CC4)cc3c2C(C)C)cc(C)n1 [Example 860, 2-(4-(2-(2,6-dimethylpyridin-4-yl)-3-isopropyl-1H-indol-5-yl)piperidin-1-yl)-2-oxo-N-(2-(pyridin-4-yl)ethyl)acetamide] |  |  |  | 9.7 nM | 89.2 nM | 15700 nM |  | 
CNCCC(=O)N1CCC(c2ccc3[nH]c(-c4ccnc(C)c4)c(C(C)C)c3c2)CC1 [Example 570, 1-(4-(3-isopropyl-2-(2-methylpyridin-4-yl)-1H-indol-5-yl)piperidin-1-yl)-3-(methylamino)propan-1-one] | 13.1 nM | 12 nM | 971 nM |  |  |  |  | 
COc1cc(-c2[nH]c3ccc(C4CCN(C5CCOCC5)CC4)cc3c2C(C)C)ccn1 [Example 720, 3-isopropyl-2-(2-methoxypyridin-4-yl)-5-(1-(tetrahydro-2H-pyran-4-yl)piperidin-4-yl)-1H-indole] | 51 nM | 82.5 nM | 2900 nM |  |  |  |  | 
Cc1cc(-c2[nH]c3ccc(C4CCN(CC(=O)N5C[C@@H](C(F)(F)F)C[C@H]5CO)CC4)cc3c2C(C)C)cc(C)n1 [Example 291, 2-(4-(2-(2,6-dimethylpyridin-4-yl)-3-isopropyl-1H-indol-5-yl)piperidin-1-yl)-1-((2S,4S)-2-(hydroxymethyl)-4-(trifluoromethyl)pyrrolidin-1-yl)ethan-1-one] | 18.1 nM | 124 nM | 3200 nM |  |  |  |  | 
Cc1cc(-c2[nH]c3cc(F)c(C4CCN(CC(=O)N(C)C)CC4)cc3c2C(C)C)c(C)cn1 [Example 835, 2-(4-(2-(2,5-dimethylpyridin-4-yl)-6-fluoro-3-isopropyl-1H-indol-5-yl)piperidin-1-yl)-N,N-dimethylacetamide] |  |  |  | 2.9 nM | 3.4 nM | 1950 nM |  | 
CC(C)c1c(-c2ccnc(N)c2)[nH]c2ccc(C3CCNCC3)cc12 [Example 8, 4-(3-isopropyl-5-(piperidin-4-yl)-1H-indol-2-yl)pyridin-2-amine] | 34.4 nM | 28.8 nM | 160 nM |  |  |  |  | 
COc1cc(-c2[nH]c3ccc(C4CCN(C5CCN(CC(C)C)CC5)CC4)cc3c2C)ccn1 [Example 781, 5-(1′-isobutyl-[1,4′-bipiperidin]-4-yl)-2-(2-methoxypyridin-4-yl)-3-methyl-1H-indole] | 577 nM | 316 nM | 206 nM |  |  |  |  | 
Cc1cc(-c2[nH]c3ccc(C4CCN(C(=O)CC5C(=O)NC(=O)N5C)CC4)cc3c2C(C)C)cc(C)n1 (stereo not drawn) [Example 130, 5-(2-(4-(2-(2,6-dimethylpyridin-4-yl)-3-isopropyl-1H-indol-5-yl)piperidin-1-yl)-2-oxoethyl)-1-methylimidazolidine-2,4-dione] | 29.7 nM | 73.5 nM | 11800 nM |  |  |  |  | 
CC(C)c1c(-c2cc(C3CC3)ncc2F)[nH]c2ccc(C3CCN(C(=O)C4CC(=O)N(C)C4)CC3)cc12 (stereo not drawn) [Example 517, 4-(4-(2-(2-cyclopropyl-5-fluoropyridin-4-yl)-3-isopropyl-1H-indol-5-yl)piperidine-1-carbonyl)-1-methylpyrrolidin-2-one] | 144 nM | 1150 nM | > 50000 nM |  |  |  |  | 
Cc1cc(-c2[nH]c3ccc(C4CCN(C(=O)CN5CC(C(F)(F)F)C[C@@H]5CO)CC4)cc3c2C(C)C)cc(C)n1 (stereo partly drawn) [Example 404, 1-(4-(2-(2,6-dimethylpyridin-4-yl)-3-isopropyl-1H-indol-5-yl)piperidin-1-yl)-2-((2R)-2-(hydroxymethyl)-4-(trifluoromethyl)pyrrolidin-1-yl)ethan-1-one] | 64.5 nM | 437 nM | 11300 nM |  |  |  |  | 
CNCCN1CCC(c2ccc3[nH]c(-c4ccnc(Cl)c4)c(C)c3c2)CC1 [Example 751, 2-(4-(2-(2-chloropyridin-4-yl)-3-methyl-1H-indol-5-yl)piperidin-1-yl)-N-methylethan-1-amine] | 472 nM | 55.6 nM | 324 nM |  |  |  |  | 
COc1cc(-c2[nH]c3ccc(C4CCN(C5CCN(C(C)C)CC5)CC4)cc3c2C(C)C)ccn1 [Example 797, 3-isopropyl-5-(1′-isopropyl-[1,4′-bipiperidin]-4-yl)-2-(2-methoxypyridin-4-yl)-1H-indole] | 141 nM | 23.1 nM | 596 nM |  |  |  |  | 
CNC(=O)CN1CCC(c2ccc3[nH]c(-c4cc(C)ncc4C)c(C(C)C)c3c2)CC1 [Example 653, 2-(4-(2-(2,5-dimethylpyridin-4-yl)-3-isopropyl-1H-indol-5-yl)piperidin-1-yl)-N-methylacetamide] | 13.9 nM | 4.4 nM | 4160 nM |  |  |  |  | 
CC(=O)N1CCC(c2cc3c(C(C)C)c(-c4cc(C)nc(C)c4)[nH]c3cc2F)CC1 [Example 829, 1-(4-(2-(2,6-dimethylpyridin-4-yl)-6-fluoro-3-isopropyl-1H-indol-5-yl)piperidin-1-yl)ethan-1-one] |  |  |  | 17.5 nM | 63.4 nM | 3070 nM |  | 

The next lines start with the values.

IC50 [1, 4] | IC50 [2, 5] | IC50 [3, 6] | IC50 [1, 7] | IC50 [2, 8] | IC50 [3, 9] | IC50 ([2]; TLR8 IC50, HEK-Blue cells overexpressing human TLR8, R848 15.9 μM) | IC50 ([3]; TLR9 IC50, HEK-Blue cells overexpressing human TLR9, ODN2006 5 nM) | Compound
3.3 nM | 13.9 nM | 657 nM |  |  |  |  |  | CCN(C)CC(=O)N1CCC(c2ccc3[nH]c(-c4cc(C)nc(C)c4)c(C(C)C)c3c2)CC1 [Example 356, 1-(4-(2-(2,6-dimethylpyridin-4-yl)-3-isopropyl-1H-indol-5-yl)piperidin-1-yl)-2-(ethyl(methyl)amino)ethan-1-one]
12 nM | 4.8 nM | 5850 nM |  |  |  |  |  | Cc1cc(-c2[nH]c3ccc(C4CCN(CC5COC5)CC4)cc3c2C(C)C)c(F)cn1 [Example 646, 2-(5-fluoro-2-methylpyridin-4-yl)-3-isopropyl-5-(1-(oxetan-3-ylmethyl)piperidin-4-yl)-1H-indole]
9.6 nM | 32.4 nM | 954 nM |  |  |  |  |  | Cc1cc(-c2[nH]c3ccc(C4CCN(CC(=O)N(C)CC(C)C)CC4)cc3c2C(C)C)cc(C)n1 [Example 245, 2-(4-(2-(2,6-dimethylpyridin-4-yl)-3-isopropyl-1H-indol-5-yl)piperidin-1-yl)-N-isobutyl-N-methylacetamide]
6.8 nM | 17.2 nM | 2010 nM |  |  |  |  |  | Cc1cc(-c2[nH]c3ccc(C4CCN(CC(=O)NCC(C)C)CC4)cc3c2C(C)C)cc(C)n1 [Example 221, 2-(4-(2-(2,6-dimethylpyridin-4-yl)-3-isopropyl-1H-indol-5-yl)piperidin-1-yl)-N-isobutylacetamide]
11.4 nM | 24.9 nM | 1720 nM |  |  |  |  |  | CCC(C)NC(=O)CN1CCC(c2ccc3[nH]c(-c4cc(C)nc(C)c4)c(C(C)C)c3c2)CC1 (stereo not drawn) [Example 234, N-(sec-butyl)-2-(4-(2-(2,6-dimethylpyridin-4-yl)-3-isopropyl-1H-indol-5-yl)piperidin-1-yl)acetamide]
7.9 nM | 39.7 nM | 1860 nM |  |  |  |  |  | Cc1cc(-c2[nH]c3ccc(C4CCN(C(=O)CN(CCO)C(C)C)CC4)cc3c2C(C)C)cc(C)n1 [Example 415, 1-(4-(2-(2,6-dimethylpyridin-4-yl)-3-isopropyl-1H-indol-5-yl)piperidin-1-yl)-2-((2-hydroxyethyl)(isopropyl)amino)ethan-1-one]
5.7 nM |  |  |  |  |  | 47.7 nM | 8860 nM | Cc1cc(-c2[nH]c3ccc(C4CCN(C(=O)Cc5cc(N)n[nH]5)CC4)cc3c2C(C)C)cc(C)n1 [Example 139, 2-(3-amino-1H-pyrazol-5-yl)-1-(4-(2-(2,6-dimethylpyridin-4-yl)-3-isopropyl-1H-indol-5-yl)piperidin-1-yl)ethan-1-one]
12.5 nM | 158 nM | 16200 nM |  |  |  |  |  | Cc1cc(-c2[nH]c3ccc(C4CCN(C(=O)CCNS(=O)(=O)c5ccccc5)CC4)cc3c2C(C)C)cc(C)n1 [Example 120, N-(3-(4-(2-(2,6-dimethylpyridin-4-yl)-3-isopropyl-1H-indol-5-yl)piperidin-1-yl)-3-oxopropyl)benzenesulfonamide]
